Measured values as given in the supplement of paper PMC7394473.

Tests used:
Conditions in all cases: 72 h
U2OS [1] = test: FV IC50 (concentration giving fractional viability 0.5); higher = less potent killing
Procedure: (§1)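 U2OS cells treated with full dose titrations of drug; live and dead cells counted by STACK microscopy (mKate2 nuclei, SYTOX Green) at 72 h, biological triplicates. GR and FV dose responses were fitted with 4-parameter logistic models (GR lower bound -1). GRADE (0-100) is the rescaled angle of a linear fit of FV versus GR at doses with GR >= 0, giving the percentage of the response due to cell death.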

U2OS [2] = test: drug GRADE (percent of response due to cell death) (% (0-100)); higher = more death-driven response
Procedure: as §1

U2OS [3] = test: GR50 (concentration giving GR = 0.5)
Procedure: as §1

U2OS [4] = test: normalized growth rate inhibition value (GR) relative to untreated cells (GR value (dimensionless, 1 = untreated growth)); higher = less growth inhibition
Procedure: (§2)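 U2OS::Nuc-mKate2 cells seeded in 96-well plates and treated with eight- to ten-point half-log or log dilutions of drug in the presence of 50 nM SYTOX Green. Live (mKate2+) and dead (SYTOX+) cells were counted by IncuCyte STACK live-cell microscopy at 72 h; biological triplicates. GR is the normalised growth-rate inhibition value (Hafner 2016; 1 = untreated growth, <0 = population shrinking). FV is live/(live+dead) cells, not normalised.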

U2OS [5] = test: fractional viability (live cells / total cells); higher = less cell death
Procedure: as §2

U2OS [6] = test: GRmin (fitted minimal GR value at highest effect) (GR value (dimensionless)); higher = less efficacious
Procedure: as §1

SMILES	FV IC50 (U2OS [1]) [µM]	drug GRADE (U2OS [2])	GR50 (U2OS [3]) [µM]	normalized growth rate inhibition value (U2OS [4]; 0.01 µM)	normalized growth rate inhibition value (U2OS [4]; 0.0316 µM)	normalized growth rate inhibition value (U2OS [4]; 0.1 µM)	normalized growth rate inhibition value (U2OS [4]; 0.316 µM)	normalized growth rate inhibition value (U2OS [4]; 1 µM)	normalized growth rate inhibition value (U2OS [4]; 3.16 µM)	normalized growth rate inhibition value (U2OS [4]; 10 µM)	normalized growth rate inhibition value (U2OS [4]; 31.6 µM)	fractional viability (U2OS [5]; 0.01 µM)	fractional viability (U2OS [5]; 0.0316 µM)	fractional viability (U2OS [5]; 0.1 µM)	fractional viability (U2OS [5]; 0.316 µM)	fractional viability (U2OS [5]; 1 µM)	fractional viability (U2OS [5]; 3.16 µM)	fractional viability (U2OS [5]; 10 µM)	fractional viability (U2OS [5]; 31.6 µM)	GRmin (U2OS [6])	further results
CNc1ccc2oc(C[C@H]3O[C@@]4(CC[C@H]3C)O[C@H]([C@H](C)C(=O)c3ccc[nH]3)[C@H](C)C[C@H]4C)nc2c1C(=O)O	8.33	23.9	1.69	1.02	1.01	0.913	0.846	0.612	0.31	-0.171	-0.602	0.982	0.983	0.976	0.97	0.959	0.848	0.418	0.0921	–	–
CCN1CCN(Cc2ccc(Nc3ncc(F)c(-c4cc(F)c5nc(C)n(C(C)C)c5c4)n3)nc2)CC1 [Abemaciclib]	3.61	17.3	0.299	–	–	–	–	–	–	-0.928	–	–	–	–	–	–	–	0.0044	–	–	normalized growth rate inhibition value (U2OS [4]; 0.00100578 µM): 1.03; normalized growth rate inhibition value (U2OS [4]; 0.00317827 µM): 0.796; normalized growth rate inhibition value (U2OS [4]; 0.0100433 µM): 0.854; normalized growth rate inhibition value (U2OS [4]; 0.0317369 µM): 0.834; normalized growth rate inhibition value (U2OS [4]; 0.100289 µM): 0.613; normalized growth rate inhibition value (U2OS [4]; 0.316912 µM): 0.583; normalized growth rate inhibition value (U2OS [4]; 1.00144 µM): -0.0282; normalized growth rate inhibition value (U2OS [4]; 3.16456 µM): -0.2; fractional viability (U2OS [5]; 0.00100578 µM): 0.99; fractional viability (U2OS [5]; 0.00317827 µM): 0.992; fractional viability (U2OS [5]; 0.0100433 µM): 0.993; fractional viability (U2OS [5]; 0.0317369 µM): 0.992; fractional viability (U2OS [5]; 0.100289 µM): 0.986; fractional viability (U2OS [5]; 0.316912 µM): 0.986; fractional viability (U2OS [5]; 1.00144 µM): 0.82; fractional viability (U2OS [5]; 3.16456 µM): 0.615
N.N.[Cl][Pt][Cl] [Cisplatin]	–	11.1	1.8	–	–	–	–	–	–	0.0495	–	–	–	–	–	–	–	0.884	–	0.0264	normalized growth rate inhibition value (U2OS [4]; 0.00100578 µM): 0.959; normalized growth rate inhibition value (U2OS [4]; 0.00317827 µM): 0.955; normalized growth rate inhibition value (U2OS [4]; 0.0100433 µM): 1.02; normalized growth rate inhibition value (U2OS [4]; 0.0317369 µM): 0.95; normalized growth rate inhibition value (U2OS [4]; 0.100289 µM): 0.901; normalized growth rate inhibition value (U2OS [4]; 0.316912 µM): 0.972; normalized growth rate inhibition value (U2OS [4]; 1.00144 µM): 0.755; normalized growth rate inhibition value (U2OS [4]; 3.16456 µM): 0.248; fractional viability (U2OS [5]; 0.00100578 µM): 0.99; fractional viability (U2OS [5]; 0.00317827 µM): 0.989; fractional viability (U2OS [5]; 0.0100433 µM): 0.988; fractional viability (U2OS [5]; 0.0317369 µM): 0.99; fractional viability (U2OS [5]; 0.100289 µM): 0.988; fractional viability (U2OS [5]; 0.316912 µM): 0.986; fractional viability (U2OS [5]; 1.00144 µM): 0.984; fractional viability (U2OS [5]; 3.16456 µM): 0.957
Cc1cn(-c2cc(NC(=O)c3ccc(C)c(Nc4nccc(-c5cccnc5)n4)c3)cc(C(F)(F)F)c2)cn1 [Nilotinib]	10.3	27.4	3.89	1.07	1.11	0.977	0.928	0.955	0.585	-0.184	-0.875	0.984	0.986	0.98	0.98	0.972	0.92	0.53	0.00617	–	–
CC[C@@H]1C(=O)N(C)c2cnc(Nc3ccc(C(=O)N[C@H]4CC[C@H](N5CCN(CC6CC6)CC5)CC4)cc3OC)nc2N1C(C)C [Volasertib]	–	17.9	0.0162	–	–	–	–	-0.259	–	–	–	–	–	–	–	0.548	–	–	–	-0.24	normalized growth rate inhibition value (U2OS [4]; 0.000100578 µM): 0.973; normalized growth rate inhibition value (U2OS [4]; 0.000317827 µM): 1.07; normalized growth rate inhibition value (U2OS [4]; 0.00100433 µM): 1.1; normalized growth rate inhibition value (U2OS [4]; 0.00317369 µM): 1; normalized growth rate inhibition value (U2OS [4]; 0.0100289 µM): 0.717; normalized growth rate inhibition value (U2OS [4]; 0.0316912 µM): 0.122; normalized growth rate inhibition value (U2OS [4]; 0.100144 µM): -0.136; normalized growth rate inhibition value (U2OS [4]; 0.316456 µM): -0.25; fractional viability (U2OS [5]; 0.000100578 µM): 0.988; fractional viability (U2OS [5]; 0.000317827 µM): 0.986; fractional viability (U2OS [5]; 0.00100433 µM): 0.987; fractional viability (U2OS [5]; 0.00317369 µM): 0.986; fractional viability (U2OS [5]; 0.0100289 µM): 0.964; fractional viability (U2OS [5]; 0.0316912 µM): 0.86; fractional viability (U2OS [5]; 0.100144 µM): 0.725; fractional viability (U2OS [5]; 0.316456 µM): 0.563
Cc1c(N)nc([C@H](CC(N)=O)NC[C@H](N)C(N)=O)nc1C(=O)N[C@H](C(=O)N[C@H](C)[C@@H](O)[C@H](C)C(=O)N[C@H](C(=O)NCCc1nc(-c2nc(C(=O)NCCC[S+](C)C)cs2)cs1)[C@@H](C)O)[C@@H](OC1OC(CO)C(O)C(O)C1OC1OC(CO)C(O)C(OC(N)=O)C1O)c1cnc[nH]1 (some centres not stated) [Bleomycin]	–	6.06	1.15	–	–	–	–	–	–	0.0892	–	–	–	–	–	–	–	0.947	–	0.0459	normalized growth rate inhibition value (U2OS [4]; 0.00100578 µM): 1.12; normalized growth rate inhibition value (U2OS [4]; 0.00317827 µM): 0.986; normalized growth rate inhibition value (U2OS [4]; 0.0100433 µM): 1.11; normalized growth rate inhibition value (U2OS [4]; 0.0317369 µM): 1.03; normalized growth rate inhibition value (U2OS [4]; 0.100289 µM): 0.88; normalized growth rate inhibition value (U2OS [4]; 0.316912 µM): 0.888; normalized growth rate inhibition value (U2OS [4]; 1.00144 µM): 0.552; normalized growth rate inhibition value (U2OS [4]; 3.16456 µM): 0.195; fractional viability (U2OS [5]; 0.00100578 µM): 0.989; fractional viability (U2OS [5]; 0.00317827 µM): 0.989; fractional viability (U2OS [5]; 0.0100433 µM): 0.99; fractional viability (U2OS [5]; 0.0317369 µM): 0.991; fractional viability (U2OS [5]; 0.100289 µM): 0.987; fractional viability (U2OS [5]; 0.316912 µM): 0.982; fractional viability (U2OS [5]; 1.00144 µM): 0.972; fractional viability (U2OS [5]; 3.16456 µM): 0.968
Cc1ccc(C(=O)N(CCCN)[C@@H](c2oc3cc(Cl)ccc3c(=O)c2Cc2ccccc2)C(C)C)cc1	2.85	53.2	–	-0.165	0.0886	-0.222	0.0837	-0.166	-0.182	-0.945	-0.883	0.758	0.808	0.764	0.827	0.782	0.436	0.0037	0.000513	-0.9	normalized growth rate inhibition value (U2OS [4]; 0.00316 µM): 0.205; fractional viability (U2OS [5]; 0.00316 µM): 0.855
CO[C@@H]1C[C@@H](C[C@H]2CC[C@H](C)[C@H]([C@@H](C)C(=O)O)O2)O[C@]2(O[C@](C)([C@H]3CC[C@@](C)([C@@H]4O[C@@H]([C@H]5O[C@@](O)(CO)[C@H](C)C[C@@H]5C)C[C@@H]4C)O3)C[C@H]2C)[C@@H]1C [Nigericin]	–	57.3	0.436	0.857	0.78	0.777	0.484	0.277	0.287	0.155	-0.106	0.963	0.957	0.903	0.829	0.625	0.661	0.685	0.449	-0.311	–
